Assay: Appearance of formulation (state at 25° C.)
Type: physicochemical
Description: Formulations 1 to 427 shown in Tables 1A to 1D were prepared by the above-described method using the components (A) and (B) at the compounding molar ratios shown in the tables, and their states at 25° C. were observed.

[1] = 25° C., components (A) and (B) at the compounding molar ratio shown
[2] = Tables 1C-1 to 1D, compounding molar ratio (Component (A):Component (B)) 1:1

## CC(C)C[C@H](N)C(=O)O.O=C(O)C(O)C(O)C(=O)O (stereo not shown) [Formulation 217]
[1]
  state at 25° C.: Solid

## CC(C)C[C@H](N)C(=O)O.O=C(O)c1ccccc1 [Formulation 218]
[1]
  state at 25° C.: Solid

## CC(C)C[C@H](N)C(=O)O.O=C1O[C@H]([C@@H](O)CO)C(O)=C1O [Formulation 219]
[1]
  state at 25° C.: Solid

## CC[C@H](C)[C@H](N)C(=O)O.O=CO [Formulation 221]
[1]
  state at 25° C.: Solid

## CC(=O)O.CC[C@H](C)[C@H](N)C(=O)O [Formulation 222]
[1]
  state at 25° C.: Solid

## CCC(=O)O.CC[C@H](C)[C@H](N)C(=O)O [Formulation 223]
[1]
  state at 25° C.: Solid

## CCCCCC(=O)O.CC[C@H](C)[C@H](N)C(=O)O [Formulation 224]
[1]
  state at 25° C.: Solid

## CCCC(=O)O.CC[C@H](C)[C@H](N)C(=O)O [Formulation 225]
[1]
  state at 25° C.: Solid

## CC[C@H](C)[C@H](N)C(=O)O.O=C(O)[C@H](O)[C@@H](O)[C@H](O)[C@H](O)CO [Formulation 226]
[1]
  state at 25° C.: Solid

## CC(O)C(=O)O.CC[C@H](C)[C@H](N)C(=O)O [Formulation 227]
[1]
  state at 25° C.: Solid

## CC[C@H](C)[C@H](N)C(=O)O.O=C(O)CCCCC(=O)O [Formulation 228]
[1]
  state at 25° C.: Solid

## CC[C@H](C)[C@H](N)C(=O)O.O=C(O)CCC(=O)O [Formulation 229]
[1]
  state at 25° C.: Solid

## CC[C@H](C)[C@H](N)C(=O)O.N[C@@H](CCC(=O)O)C(=O)O [Formulation 230]
[1]
  state at 25° C.: Solid

## CC[C@H](C)[C@H](N)C(=O)O.O=C(O)/C=C/C(=O)O [Formulation 231]
[1]
  state at 25° C.: Solid

## CC[C@H](C)[C@H](N)C(=O)O.O=C(O)C[C@H](O)C(=O)O [Formulation 232]
[1]
  state at 25° C.: Solid

## CC[C@H](C)[C@H](N)C(=O)O.O=C(O)CC(O)(CC(=O)O)C(=O)O [Formulation 233]
[1]
  state at 25° C.: Solid

## CC[C@H](C)[C@H](N)C(=O)O.O=C(O)C(O)C(O)C(=O)O (stereo not shown) [Formulation 234]
[1]
  state at 25° C.: Solid

## CC[C@H](C)[C@H](N)C(=O)O.O=C(O)c1ccccc1 [Formulation 235]
[1]
  state at 25° C.: Solid

## CC[C@H](C)[C@H](N)C(=O)O.O=C1O[C@H]([C@@H](O)CO)C(O)=C1O [Formulation 236]
[1]
  state at 25° C.: Solid

## N[C@@H](CO)C(=O)O.O=CO [Formulation 238]
[1]
  state at 25° C.: Solid

## CC(=O)O.N[C@@H](CO)C(=O)O [Formulation 239]
[1]
  state at 25° C.: Solid

## CCC(=O)O.N[C@@H](CO)C(=O)O [Formulation 240]
[1]
  state at 25° C.: Solid

## CCCCCC(=O)O.N[C@@H](CO)C(=O)O [Formulation 241]
[1]
  state at 25° C.: Solid

## CCCC(=O)O.N[C@@H](CO)C(=O)O [Formulation 242]
[1]
  state at 25° C.: Solid

## CC(O)C(=O)O.N[C@@H](CO)C(=O)O [Formulation 244]
[1]
  state at 25° C.: Solid

## N[C@@H](CO)C(=O)O.O=C(O)CCCCC(=O)O [Formulation 245]
[1]
  state at 25° C.: Solid

## N[C@@H](CO)C(=O)O.O=C(O)CCC(=O)O [Formulation 246]
[1]
  state at 25° C.: Solid

## N[C@@H](CCC(=O)O)C(=O)O.N[C@@H](CO)C(=O)O [Formulation 247]
[1]
  state at 25° C.: Solid

## N[C@@H](CO)C(=O)O.O=C(O)/C=C/C(=O)O [Formulation 248]
[1]
  state at 25° C.: Solid

## N[C@@H](CO)C(=O)O.O=C(O)C(O)C(O)C(=O)O (stereo not shown) [Formulation 251]
[1]
  state at 25° C.: Solid

## N[C@@H](CO)C(=O)O.O=C(O)c1ccccc1 [Formulation 252]
[1]
  state at 25° C.: Solid

## N[C@@H](CO)C(=O)O.O=C1O[C@H]([C@@H](O)CO)C(O)=C1O [Formulation 253]
[1]
  state at 25° C.: Solid

## N[C@@H](CO)C(=O)O.O=C1O[C@H]([C@H](O)CO)C(O)=C1O [Formulation 254]
[1]
  state at 25° C.: Solid

## C[C@@H](O)[C@H](N)C(=O)O.O=CO [Formulation 255]
[1]
  state at 25° C.: Solid

## CC(=O)O.C[C@@H](O)[C@H](N)C(=O)O [Formulation 256]
[1]
  state at 25° C.: Solid

## CCC(=O)O.C[C@@H](O)[C@H](N)C(=O)O [Formulation 257]
[1]
  state at 25° C.: Solid

## CCCCCC(=O)O.C[C@@H](O)[C@H](N)C(=O)O [Formulation 258]
[1]
  state at 25° C.: Solid

## CCCC(=O)O.C[C@@H](O)[C@H](N)C(=O)O [Formulation 259]
[1]
  state at 25° C.: Solid

## C[C@@H](O)[C@H](N)C(=O)O.O=C(O)[C@H](O)[C@@H](O)[C@H](O)[C@H](O)CO [Formulation 260]
[1]
  state at 25° C.: Solid

## CC(O)C(=O)O.C[C@@H](O)[C@H](N)C(=O)O [Formulation 261]
[1]
  state at 25° C.: Solid

## C[C@@H](O)[C@H](N)C(=O)O.O=C(O)CCCCC(=O)O [Formulation 262]
[1]
  state at 25° C.: Solid

## C[C@@H](O)[C@H](N)C(=O)O.O=C(O)CCC(=O)O [Formulation 263]
[1]
  state at 25° C.: Solid

## C[C@@H](O)[C@H](N)C(=O)O.N[C@@H](CCC(=O)O)C(=O)O [Formulation 264]
[1]
  state at 25° C.: Solid

## C[C@@H](O)[C@H](N)C(=O)O.O=C(O)/C=C/C(=O)O [Formulation 265]
[1]
  state at 25° C.: Solid

## C[C@@H](O)[C@H](N)C(=O)O.O=C(O)C[C@H](O)C(=O)O [Formulation 266]
[1]
  state at 25° C.: Solid

## C[C@@H](O)[C@H](N)C(=O)O.O=C(O)CC(O)(CC(=O)O)C(=O)O [Formulation 267]
[1]
  state at 25° C.: Solid

## C[C@@H](O)[C@H](N)C(=O)O.O=C(O)C(O)C(O)C(=O)O (stereo not shown) [Formulation 268]
[1]
  state at 25° C.: Solid

## C[C@@H](O)[C@H](N)C(=O)O.O=C(O)c1ccccc1 [Formulation 269]
[1]
  state at 25° C.: Solid

## C[C@@H](O)[C@H](N)C(=O)O.O=C1O[C@H]([C@@H](O)CO)C(O)=C1O [Formulation 270]
[1]
  state at 25° C.: Solid

## C[C@@H](O)[C@H](N)C(=O)O.O=C1O[C@H]([C@H](O)CO)C(O)=C1O [Formulation 271]
[1]
  state at 25° C.: Solid

## N[C@@H](CS)C(=O)O.O=CO [Formulation 306]
[2]
  state at 25° C.: Solid

## CC(=O)O.N[C@@H](CS)C(=O)O [Formulation 307]
[2]
  state at 25° C.: Solid

## CCC(=O)O.N[C@@H](CS)C(=O)O [Formulation 308]
[2]
  state at 25° C.: Solid

## CCCCCC(=O)O.N[C@@H](CS)C(=O)O [Formulation 309]
[2]
  state at 25° C.: Solid

## CCCC(=O)O.N[C@@H](CS)C(=O)O [Formulation 310]
[2]
  state at 25° C.: Solid

## N[C@@H](CS)C(=O)O.O=C(O)[C@H](O)[C@@H](O)[C@H](O)[C@H](O)CO [Formulation 311]
[2]
  state at 25° C.: Solid

## CC(O)C(=O)O.N[C@@H](CS)C(=O)O [Formulation 312]
[2]
  state at 25° C.: Solid

## N[C@@H](CS)C(=O)O.O=C(O)CCCCC(=O)O [Formulation 313]
[2]
  state at 25° C.: Solid

## N[C@@H](CS)C(=O)O.O=C(O)CCC(=O)O [Formulation 314]
[2]
  state at 25° C.: Solid

## N[C@@H](CCC(=O)O)C(=O)O.N[C@@H](CS)C(=O)O [Formulation 315]
[2]
  state at 25° C.: Solid

## N[C@@H](CS)C(=O)O.O=C(O)/C=C/C(=O)O [Formulation 316]
[2]
  state at 25° C.: Solid

## N[C@@H](CS)C(=O)O.O=C(O)C[C@H](O)C(=O)O [Formulation 317]
[2]
  state at 25° C.: Solid

## N[C@@H](CS)C(=O)O.O=C(O)CC(O)(CC(=O)O)C(=O)O [Formulation 318]
[2]
  state at 25° C.: Solid

## N[C@@H](CS)C(=O)O.O=C(O)C(O)C(O)C(=O)O (stereo not shown) [Formulation 319]
[2]
  state at 25° C.: Solic

## N[C@@H](CS)C(=O)O.O=C(O)c1ccccc1 [Formulation 320]
[2]
  state at 25° C.: Solid

## N[C@@H](CS)C(=O)O.O=C1O[C@H]([C@@H](O)CO)C(O)=C1O [Formulation 321]
[2]
  state at 25° C.: Solid

## N[C@@H](CS)C(=O)O.O=C1O[C@H]([C@H](O)CO)C(O)=C1O [Formulation 322]
[2]
  state at 25° C.: Solid

## CSCC[C@H](N)C(=O)O.O=CO [Formulation 323]
[2]
  state at 25° C.: Solid

## CC(=O)O.CSCC[C@H](N)C(=O)O [Formulation 324]
[2]
  state at 25° C.: Solid

## CCC(=O)O.CSCC[C@H](N)C(=O)O [Formulation 325]
[2]
  state at 25° C.: Solid

## CCCCCC(=O)O.CSCC[C@H](N)C(=O)O [Formulation 326]
[2]
  state at 25° C.: Solid

## CCCC(=O)O.CSCC[C@H](N)C(=O)O [Formulation 327]
[2]
  state at 25° C.: Solid

## CSCC[C@H](N)C(=O)O.O=C(O)[C@H](O)[C@@H](O)[C@H](O)[C@H](O)CO [Formulation 328]
[2]
  state at 25° C.: Solid

## CC(O)C(=O)O.CSCC[C@H](N)C(=O)O [Formulation 329]
[2]
  state at 25° C.: Solid

## CSCC[C@H](N)C(=O)O.O=C(O)CCCCC(=O)O [Formulation 330]
[2]
  state at 25° C.: Solid

## CSCC[C@H](N)C(=O)O.O=C(O)CCC(=O)O [Formulation 331]
[2]
  state at 25° C.: Solid

## CSCC[C@H](N)C(=O)O.N[C@@H](CCC(=O)O)C(=O)O [Formulation 332]
[2]
  state at 25° C.: Solid

## CSCC[C@H](N)C(=O)O.O=C(O)/C=C/C(=O)O [Formulation 333]
[2]
  state at 25° C.: Solid

## CSCC[C@H](N)C(=O)O.O=C(O)C[C@H](O)C(=O)O [Formulation 334]
[2]
  state at 25° C.: Solid

## CSCC[C@H](N)C(=O)O.O=C(O)CC(O)(CC(=O)O)C(=O)O [Formulation 335]
[2]
  state at 25° C.: Solid

## CSCC[C@H](N)C(=O)O.O=C(O)C(O)C(O)C(=O)O (stereo not shown) [Formulation 336]
[2]
  state at 25° C.: Solid

## CSCC[C@H](N)C(=O)O.O=C(O)c1ccccc1 [Formulation 337]
[2]
  state at 25° C.: Solid

## CSCC[C@H](N)C(=O)O.O=C1O[C@H]([C@@H](O)CO)C(O)=C1O [Formulation 338]
[2]
  state at 25° C.: Solid

## CSCC[C@H](N)C(=O)O.O=C1O[C@H]([C@H](O)CO)C(O)=C1O [Formulation 339]
[2]
  state at 25° C.: Solid

## O=C(O)[C@@H]1CCCN1.O=CO [Formulation 340]
[2]
  state at 25° C.: Solid
